For 41 compounds, IC50 and Emax results are on record in patent publication US20240336642A1 (The General Hospital Corporation, priority 2021, published 2024).

Molecules are shown by their SMILES. Counter-ions that a name gives are not always drawn.

The target in the test is h12/15-LOX (Homo sapiens (Human), UniProt P16050). As to the kind of experiment: 12/15-LOX enzyme inhibition IC50 assay (Examples 1 and 2). Particulars: for Emax: h12/15-LOX, read-out: Max % inhibition. The test is classed as biochemical. How it is done: Enzyme was then added to the cuvettes. […] The % inhibition for each test compound concentration were calculated as follows: […]
Sequence of h12/15-LOX (P16050 whole entry): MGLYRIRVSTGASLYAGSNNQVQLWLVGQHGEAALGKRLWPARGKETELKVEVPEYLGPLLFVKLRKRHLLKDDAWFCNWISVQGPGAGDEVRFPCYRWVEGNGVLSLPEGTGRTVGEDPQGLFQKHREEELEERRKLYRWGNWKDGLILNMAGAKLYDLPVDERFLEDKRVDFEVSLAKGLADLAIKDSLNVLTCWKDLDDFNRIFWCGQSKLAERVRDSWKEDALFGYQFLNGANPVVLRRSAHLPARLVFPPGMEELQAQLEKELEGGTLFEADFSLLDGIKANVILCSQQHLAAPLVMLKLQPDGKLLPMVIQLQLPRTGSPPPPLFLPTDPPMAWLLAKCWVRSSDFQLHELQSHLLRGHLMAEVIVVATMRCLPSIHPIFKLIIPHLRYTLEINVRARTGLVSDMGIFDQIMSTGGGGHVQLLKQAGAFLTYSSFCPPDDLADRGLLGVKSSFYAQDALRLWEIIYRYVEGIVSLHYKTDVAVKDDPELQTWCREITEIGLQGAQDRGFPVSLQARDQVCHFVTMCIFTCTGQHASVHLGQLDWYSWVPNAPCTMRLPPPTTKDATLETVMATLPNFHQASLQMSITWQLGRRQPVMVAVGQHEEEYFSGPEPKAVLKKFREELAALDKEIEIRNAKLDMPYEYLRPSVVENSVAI

The term IC50 denotes the concentration that gives 50% inhibition. As for `CNc1oc(-c2ccc(Cl)c(Cl)c2Cl)nc1C#N`, the IC50 was over 20000 nM and the Emax turned out to be 49%. In the same order, the values of `CNc1oc(-c2c(Cl)ccc(Cl)c2Cl)nc1C#N` are over 20000 nM and 32%. In the same order, the values of `CNc1oc(-c2cc(Cl)cc(Cl)c2C)nc1C#N` [Compound 2, 2-(3,5-Dichloro-2-methylphenyl)-5-(methylamino)oxazole-4-carbonitrile] are 63 nM and 85%.

In the case of `CNc1oc(-c2cc(Cl)cc(Cl)c2F)nc1C#N` [Compound 3, 2-(3,5-Dichloro-2-fluorophenyl)-5-(methylamino)oxazole-4-carbonitrile], the concentration for half-maximal inhibition (IC50) stood at 330 nM and the Emax worked out at 88%. `CNc1oc(-c2cc(Cl)cc(Cl)c2OC(F)F)nc1C#N` [Compound 4]: the Emax was 67%. With `CNc1oc(-c2cc(Cl)cc(Cl)c2OC)nc1C#N` [Compound 5, 2-(3,5-Dichloro-2-methoxyphenyl)-5-(methylamino)oxazole-4-carbonitrile], the half-maximal inhibitory concentration (IC50) amounted to 180 nM and the Emax worked out at 92%. In the same order, the values of `CNc1oc(-c2cc(Cl)cc(C)c2Cl)nc1C#N` [Compound 6, 2-(2,5-Dichloro-3-methylphenyl)-5-(methylamino)oxazole-4-carbonitrile] are 180 nM and 99%. In the same order, the values of `CNc1oc(-c2cc(Cl)cc(F)c2Cl)nc1C#N` [Compound 7] are over 20000 nM and 37%. In the same order, the values of `CNc1oc(-c2cc(Cl)cc(C(F)(F)F)c2Cl)nc1C#N` [Compound 8, 2-(2,5-Dichloro-3-(trifluoromethyl)phenyl)-5-(methylamino)oxazole-4-carbonitrile] are 81 nM and 94%.

As to `CNc1oc(-c2cc(Cl)cc(OC)c2Cl)nc1C#N` [Compound 9], the Emax is 71%. With `CNc1oc(-c2cc(C)cc(Cl)c2Cl)nc1C#N` [Compound 10, 2-(2,3-Dichloro-5-methylphenyl)-5-(methylamino)oxazole-4-carbonitrile], half-maximal inhibition (IC50) required 380 nM and the Emax was found to be 80%. For the compound `CNc1oc(-c2cc(F)cc(Cl)c2Cl)nc1C#N` [Compound 11, 2-(2,3-Dichloro-5-fluorophenyl)-5-(methylamino)oxazole-4-carbonitrile], the IC50 was determined as 870 nM and the Emax worked out at 93%. In the same order, the values of `CNc1oc(-c2cc(C(F)(F)F)cc(Cl)c2Cl)nc1C#N` [Compound 12, 2-(2,3-Dichloro-5-(trifluoromethyl)phenyl)-5-(methylamino)oxazole-4-carbonitrile] are over 20000 nM and 41%. In the same order, the values of `CNc1oc(-c2cc(C#N)cc(Cl)c2Cl)nc1C#N` [Compound 13, 2-(2,3-Dichloro-5-cyanophenyl)-5-(methylamino)oxazole-4-carbonitrile] are 1100 nM and 100%. For `C=CCNc1oc(-c2cc(Cl)cc(Cl)c2Cl)nc1C#N` [Compound 14, 5-(allylamino)-2-(2,3,5-trichlorophenyl)oxazole-4-carbonitrile], the concentration for half-maximal inhibition (IC50) was 110 nM and the Emax turned out to be 88%. In the same order, the values of `C/C=C/CNc1oc(-c2cc(Cl)cc(Cl)c2Cl)nc1C#N` [Compound 15, (E)-5-(But-2-en-1-ylamino)-2-(2,3,5-trichlorophenyl)oxazole-4-carbonitrile] are 170 nM and 92%.

Take `N#Cc1nc(-c2cc(Cl)cc(Cl)c2OC(F)F)oc1NCCCCO` [Compound 18, 2-(3,5-Dichloro-2-(difluoromethoxy)phenyl)-5-((4-hydroxybutyl)amino)oxazole-4-carbonitrile]: the IC50 was determined as 2000 nM and the Emax was 90%. On to `Cc1c(Cl)cc(Cl)cc1-c1nc(C#N)c(NCCCCO)o1` [Compound 19, 2-(3,5-Dichloro-2-methylpheny1)-5-((4-hydroxybutyl)amino)oxazole-4-carbonitrile], for which the 50% inhibitory concentration (IC50) worked out at 460 nM and the Emax stood at 68%. In the same order, the values of `N#Cc1nc(-c2cc(Cl)cc(C(F)(F)F)c2Cl)oc1NCCCCO` [Compound 20, 2-(2,5-Dichloro-3-(trifluoromethyl)phenyl)-5-((4-hydroxybutyl)amino)oxazole-4-carbonitrile] are 1500 nM and 97%.

For `Cc1cc(Cl)c(Cl)c(-c2nc(C#N)c(NCCCCO)o2)c1` [Compound 21, 2-(2,3-Dichloro-5-methylphenyl)-5-((4-hydroxybutyl)amino)oxazole-4-carbonitrile], the IC50 is 8000 nM and the Emax came to 86%. In the same order, the values of `N#Cc1nc(-c2cc(Cl)cc(Cl)c2OC(F)F)oc1NCCCCCO` [Compound 23, 2-(3,5-Dichloro-2-(difluoromethoxy)phenyl)-5-((5-hydroxypentyl)amino)oxazole-4-carbonitrile] are 2000 nM and 97%. In the same order, the values of `Cc1c(Cl)cc(Cl)cc1-c1nc(C#N)c(NCCCCCO)o1` [Compound 24, 2-(3,5-Dichloro-2-methylphenyl)-5-((5-hydroxypentyl)amino)oxazole-4-carbonitrile] are 320 nM and 80%.

With `N#Cc1nc(-c2cc(Cl)cc(Cl)c2F)oc1NCCCCCO` [Compound 25], the Emax was determined as 38%. `Cc1cc(Cl)cc(-c2nc(C#N)c(NCCCCCO)o2)c1Cl` [Compound 26, 2-(2,5-Dichloro-3-methylphenyl)-5-((5-hydroxypentyl)amino)oxazole-4-carbonitrile]: the IC50 is 800 nM and the Emax is 100%. In the same order, the values of `N#Cc1nc(-c2cc(Cl)cc(C(F)(F)F)c2Cl)oc1NCCCCCO` [Compound 27, 2-(2,5-Dichloro-3-(trifluoromethyl)phenyl)-5-((5-hydroxypentyl)amino)oxazole-4-carbonitrile] are 550 nM and 70%. In the same order, the values of `N#Cc1nc(-c2cc(Cl)cc(Cl)c2OC(F)F)oc1NCCOCCO` [Compound 29, 2-(3,5-Dichloro-2-(difluoromethoxy)phenyl)-5-((2-(2-hydroxyethoxy)ethyl)amino)oxazole-4-carbonitrile] are 3000 nM and 100%. Regarding `Cc1c(Cl)cc(Cl)cc1-c1nc(C#N)c(NCCOCCO)o1` [Compound 30], the Emax was determined as 100%. In the case of `N#Cc1nc(-c2cc(Cl)cc(C(F)(F)F)c2Cl)oc1NCCOCCO` [Compound 31, 2-(2,5-Dichloro-3-(trifluoromethyl)phenyl)-5-((2-(2-hydroxyethoxy)ethyl)amino)oxazole-4-carbonitrile], the IC50 came out at 2400 nM and the Emax amounted to 99%.

For the compound `COCCOCCNc1oc(-c2cc(Cl)cc(Cl)c2OC(F)F)nc1C#N` [Compound 33, 2-(3,5-Dichloro-2-(difluoromethoxy)phenyl)-5-((2-(2-methoxyethoxy)ethyl)amino)oxazole-4-carbonitrile], the 50% inhibitory concentration (IC50) stood at 650 nM and the Emax worked out at 100%.

Regarding `COCCOCCNc1oc(-c2cc(Cl)cc(Cl)c2C)nc1C#N` [Compound 34], the Emax is 100%. As to `COCCOCCNc1oc(-c2cc(Cl)cc(Cl)c2F)nc1C#N` [Compound 35, 2-(3,5-Dichloro-2-fluorophenyl)-5-((2-(2-methoxyethoxy)ethyl)amino)oxazole-4-carbonitrile], the IC50 is 3000 nM and the Emax was 100%. `COCCOCCNc1oc(-c2cc(Cl)cc(C)c2Cl)nc1C#N` [Compound 36, 2-(2,5-Dichloro-3-methylphenyl)-5-((2-(2-methoxyethoxy)ethyl)amino)oxazole-4-carbonitrile]: inhibition was half-maximal at 1100 nM (IC50) and the Emax amounted to 100%. In the same order, the values of `COCCOCCNc1oc(-c2cc(Cl)cc(C(F)(F)F)c2Cl)nc1C#N` [Compound 37, 2-(2,5-Dichloro-3-(trifluoromethyl)phenyl)-5-((2-(2-methoxyethoxy)ethyl)amino)oxazole-4-carbonitrile] are 1800 nM and 96%. Turning to `COCCOCCNc1oc(-c2cc(C)cc(Cl)c2Cl)nc1C#N` [Compound 38, 2-(2,3-Dichloro-5-methylphenyl)-5-((2-(2-methoxyethoxy)ethyl)amino)oxazole-4-carbonitrile], the half-inhibitory concentration (IC50) was found to be 6600 nM and the Emax worked out at 100%. In the same order, the values of `COCCNc1oc(-c2cc(Cl)cc(Cl)c2OC(F)F)nc1C#N` [Compound 40, 2-(3,5-Dichloro-2-(difluoromethoxy)phenyl)-5-((2-methoxyethyl)amino)oxazole-4-carbonitrile] are 290 nM and 94%. In the same order, the values of `COCCNc1oc(-c2cc(Cl)cc(Cl)c2C)nc1C#N` [Compound 41, 2-(3,5-Dichloro-2-methylphenyl)-5-((2-methoxyethyl)amino)oxazole-4-carbonitrile] are 170 nM and 89%. In the same order, the values of `COCCNc1oc(-c2cc(Cl)cc(C(F)(F)F)c2Cl)nc1C#N` [Compound 42, 2-(2,5-Dichloro-3-(trifluoromethyl)phenyl)-5-((2-methoxyethyl)amino)oxazole-4-carbonitrile] are 350 nM and 75%.

Compound `CN(C(=O)CC1CCNCC1)c1oc(-c2cc(Cl)cc(Cl)c2Cl)nc1C#N` [Compound 53] yielded a concentration for half-maximal inhibition (IC50) of over 20000 nM.

The compound `[2H]C([2H])([2H])N(C(=O)OCCCN(C)C)c1oc(-c2cc(Cl)cc(Cl)c2Cl)nc1C#N` [Compound 54, hydrochloride] registered a half-maximal inhibitory concentration (IC50) of over 20000 nM. On the same count and under the same terms, in the case of `COCCOC(=O)N(C)c1oc(-c2cc(Cl)cc(Cl)c2Cl)nc1C#N` [Compound 55, 2-Methoxyethyl (4-cyano-2-(2,3,5-trichlorophenyl)oxazol-5-yl)(methyl)carbamate] it was over 20000 nM; in that of `COCCOCCOC(=O)N(C)c1oc(-c2cc(Cl)cc(Cl)c2Cl)nc1C#N` [Compound 56, 2-(2-Methoxyethoxy)ethyl (4-cyano-2-(2,3,5-trichlorophenyl)oxazol-5-yl)(methyl)carbamate], over 20000 nM.
